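Following 48 hours of exposure in 96-well plates, responses at five concentrations were used to interpolate endpoints linearly. GI50 = concentration required for 50% inhibition of growth. At the TGI there is no net growth.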
Columns and labels:
Assay in all cases: NCI-60 cell line screen, 48 h
COLO 205 colon = test system: COLO 205 colon
OVCAR-3 ovarian = test system: OVCAR-3 ovarian
MOLT-4 leukemia = test system: MOLT-4 leukemia
SK-OV-3 ovarian = test system: SK-OV-3 ovarian
A498 renal = test system: A498 renal
CAKI-1 renal = test system: CAKI-1 renal
UACC-257 melanoma = test system: UACC-257 melanoma
786-0 renal = test system: 786-0 renal
HL-60(TB) leukemia = test system: HL-60(TB) leukemia
SK-MEL-2 melanoma = test system: SK-MEL-2 melanoma

| Structure (SMILES) | GI50 (COLO 205 colon) | TGI (COLO 205 colon) | GI50 (OVCAR-3 ovarian) | TGI (OVCAR-3 ovarian) | GI50 (MOLT-4 leukemia) | TGI (MOLT-4 leukemia) | GI50 (SK-OV-3 ovarian) | TGI (SK-OV-3 ovarian) | GI50 (A498 renal) | TGI (A498 renal) | GI50 (CAKI-1 renal) | TGI (CAKI-1 renal) | GI50 (UACC-257 melanoma) | TGI (UACC-257 melanoma) | GI50 (786-0 renal) | TGI (786-0 renal) | GI50 (HL-60(TB) leukemia) | TGI (HL-60(TB) leukemia) | GI50 (SK-MEL-2 melanoma) | TGI (SK-MEL-2 melanoma) |
| --- | --- | --- | --- | --- | --- | --- | --- | --- | --- | --- | --- | --- | --- | --- | --- | --- | --- | --- | --- | --- |
| NC1=CC(=O)c2cccnc2C1=O | 3.33 µM | 11.7 µM | 1.44 µM | 3.16 µM | 1.01 µM | 3.45 µM | 4.26 µM | 17.8 µM | 10.1 µM | 23.3 µM | 1.59 µM | 3.15 µM | 1.54 µM | 2.9 µM | 1.78 µM | 3.75 µM | 1.05 µM | 3.99 µM | 1.63 µM | 3.14 µM |
| CCOC(=O)[C@@H](C)C[C@H](Cc1ccccc1)NC(=O)c1nc([C@@H](C[C@H](C(C)C)N(C)C(=O)[C@@H](NC(=O)[C@H]2CCCCN2C)C(C)C)OC(C)=O)sc1CCOCc1ccccc1 | 0.0522 µM | 0.276 µM | 0.0396 µM |  | 0.132 µM | 5.61 µM | 0.0188 µM | > 11.1 µM | 0.0264 µM | 0.417 µM | 0.128 µM | 2.18 µM | 1.51 µM | 4.19 µM | 0.08 µM | 1.59 µM | 0.0394 µM | 0.19 µM | 0.0639 µM | 2.39 µM |
| CC1(C)N=C(N)N=C(N)N1c1ccc(CCCCc2ccccc2)c(Cl)c1 | 0.0281 µM | 1.68 µM | 0.0541 µM | 1.76 µM | 0.095 µM | 11.3 µM | 0.43 µM | 11.1 µM | 0.746 µM | 14.5 µM | 0.869 µM | 16.8 µM | 0.247 µM | 5.26 µM | 0.055 µM | 13.1 µM |  | 3.26 µM | 0.0394 µM | 12.4 µM |
| N#Cc1c(NC(=O)NCc2ccccc2)sc2c1CCCC2 | 0.593 µM | > 28.9 µM | 0.344 µM | 1.87 µM | 0.487 µM | > 100 µM | 9.2 µM | > 100 µM | 0.236 µM | 1.13 µM | 0.776 µM | > 100 µM | > 71 µM | > 100 µM | 0.822 µM | > 100 µM | 0.3 µM | 3.13 µM | 5.08 µM | > 100 µM |
| CN(C)c1ccc(/C=C/c2ccnc3c(O)cccc23)cc1 | 18.5 µM | > 100 µM | 0.462 µM | > 100 µM | 0.357 µM | > 100 µM | 0.461 µM | > 100 µM | 3.39 µM | > 100 µM | 0.401 µM | > 74.4 µM | 0.409 µM | 3.08 µM | 0.886 µM | > 26.2 µM | 0.292 µM | 1.75 µM | 0.301 µM | 11 µM |
| COc1cccc(CCC2CCCN(c3cc(C)nc(N)n3)C2)c1 (stereo unspecified) | 0.313 µM | 1.06 µM | 0.242 µM | 0.675 µM | 0.496 µM | 13.2 µM | 0.414 µM | 11.7 µM | 0.288 µM | 2.51 µM | 0.385 µM | 13.4 µM | 1.37 µM | 17.7 µM | 0.526 µM | 11.9 µM | 0.251 µM | 0.686 µM | 0.435 µM | 8.23 µM |
| COc1cc2nccc(Oc3ccc(NC(=O)NC4CC4)c(Cl)c3)c2cc1C(N)=O | > 72.8 µM | > 100 µM | 23.1 µM | > 100 µM | 16.7 µM | > 100 µM | 17.5 µM | 94.6 µM | 4.63 µM | 51.1 µM | 23.9 µM | > 64.2 µM | 27 µM | > 93.7 µM | 13.4 µM | 37.7 µM | > 100 µM | > 100 µM | 19.1 µM | 48.6 µM |
| COc1c(O)c(OC)c2oc(-c3ccc(O)c(O)c3)c(OC)c(=O)c2c1O |  | > 100 µM |  | 8.53 µM |  | > 100 µM |  | 54.4 µM |  | > 100 µM |  | > 100 µM |  | > 100 µM |  | 50.9 µM |  | 68.7 µM |  | 28.3 µM |
| COc1ccc(N=Cc2c(O)ccc3c2oc2cc(Cl)c(O)c(Cl)c23)cc1 | 16 µM | 33.2 µM | 6.91 µM | 22.3 µM | 4.84 µM | 30 µM | 15.9 µM | 49.5 µM | 14.5 µM | 28.5 µM | 4.75 µM | 28.1 µM | 15.9 µM | 48.8 µM | 19.2 µM | 52 µM | 13.2 µM | 42.7 µM | 5.92 µM | 22.9 µM |
| O=C(COc1ccc(/C=C2\COc3ccccc3C2=O)cc1)Nc1nccs1 | 14.6 µM | 29 µM | 2.73 µM | 5.81 µM | 1.6 µM | 3.76 µM | 30.9 µM | 69.5 µM | 19.3 µM | 33.7 µM | 7.55 µM | 20.7 µM | 13.3 µM | 30.6 µM | 13.9 µM | 28.1 µM | 1.68 µM | 3.48 µM | 10.8 µM | 24 µM |
| Cc1cc(=O)[nH]c(N/N=C/c2cc(Br)ccc2O)n1 | 3.45 µM | 32.5 µM | 0.34 µM | 38.6 µM | 0.432 µM | 15.5 µM | 1.34 µM | > 100 µM | 4.06 µM | 25.4 µM | 1.44 µM | 4.89 µM | 0.383 µM | 9.12 µM | 2.35 µM | > 100 µM | 0.446 µM | 5.68 µM | 49.3 µM | > 100 µM |
| COC1C(CO)OC(n2c3ccccc3c3c4c(c5c6ccccc6[nH]c5c32)C(=O)NC4=O)C(O)C1O (stereo unspecified) | < 0.036 µM | 2.14 µM | 0.0785 µM | 0.369 µM | 0.0202 µM |  | 0.0876 µM | 2.22 µM | 0.016 µM | 0.0998 µM | < 0.0184 µM | 0.0937 µM | 0.103 µM |  | 0.0467 µM | 1.12 µM | 0.0114 µM | 0.034 µM | 0.234 µM | 0.856 µM |
| C[n+]1c(/C=C/c2c[nH]c3ccccc23)ccc2ccccc21 | 5.44 µM | 22.2 µM | 7.07 µM | 26.7 µM | 4.03 µM | 15.5 µM | 14.7 µM | 90.8 µM | 2.8 µM | 18.1 µM | 14.6 µM | 34.9 µM | 12.2 µM | 25.2 µM | 14.2 µM | 30.3 µM | 12.8 µM | 30.1 µM | 16.1 µM | 30.6 µM |
| CSC1=Nc2c(c(C)c(-c3ccccc3)n2CCCN2CCCCC2)C2=NC(=O)C[C@H](C)N12 | 1.51 µM | 2.95 µM | 2.55 µM | 11 µM | 4.38 µM | > 22.5 µM | 2.66 µM | 8.57 µM | 2.6 µM | 9.64 µM | 12.1 µM | 44.5 µM | 4.37 µM | 27.5 µM | 4.48 µM | 36.5 µM | 2.51 µM | > 19.8 µM | 2.14 µM | 5.26 µM |
| CCCCCCCC/C=C/CCCCCCCC1=NC(C)(C)CN1CC(C)O (stereo unspecified) | 1.76 µM | 3.45 µM | 5.37 µM | 9.96 µM | 2.05 µM | 4.28 µM | 7.64 µM | 21.1 µM | 0.935 µM | 17 µM | 1.53 µM | 3 µM | 1.85 µM | 3.54 µM | 1.71 µM | 3.16 µM | 1.88 µM | 4.44 µM | 2.28 µM | 5.21 µM |
| Cc1ccc(Cl)cc1Nc1nc(C(F)(F)F)ccc1C(=O)N/N=C/c1cccnc1 | 4.86 µM | 17.7 µM | 2.45 µM | 14.3 µM | 1.42 µM | 10.7 µM | 3.31 µM | 15.9 µM | 2.95 µM | 11.7 µM | 2.14 µM | 9.02 µM | 3.15 µM | 10.1 µM | 2.11 µM | 11.4 µM | 1.5 µM | > 46 µM | 3.74 µM | 15.3 µM |
| COc1ccc2c(c1)[n+]([O-])c(-c1ccc([N+](=O)[O-])cc1)c(N)[n+]2[O-] |  | > 100 µM |  | > 100 µM |  | > 100 µM |  | > 100 µM |  | > 100 µM |  | > 100 µM |  | > 100 µM |  | > 100 µM |  | > 100 µM |  | > 100 µM |

Source: PubChem BioAssay (NCI)
